The structures appear in SMILES notation.

The test system of assay [1] is Monochoria vaginalis (Burm. f.) Presl var. plantaginea (Roxb.) Solms-Laub. In words: Test 1 paddy pot herbicidal effect, water surface application. The assay is classed as in vivo. Particulars: applied day after sowing, evaluated 28 days later. The text has this: (§1) Standard of herbicidal effect (level of suppression of development and growth) […] Herbicidal effect of 90% or more, injury to paddy rice […] Herbicidal effect of 70% or more to less than 90%, injury to paddy rice […] 2: […]

Assay [2] relates to Echinochloa oryzicola vasing. The assay is described as above. The assay is classed as in vivo. Particulars: applied day after sowing, evaluated 28 days later.
From the text: as §1

For assay [3], the system named is Echinochloa oryzicola vasing. The assay can be described thus: Test 3 herbicidal effect, application before germination or at 3-leaf stage. Particulars: 28th day from application.
Assay [4] concerns Monochoria vaginalis (Burm. f.) Presl var. plantaginea (Roxb.) Solms-Laub. The assay can be described thus: Test 2 paddy pot herbicidal effect with water drainage and feeding. Format: in vivo. Particulars: water drainage and feeding 2 cm per day for two days, 28th day. Here is the method: (§2) Further, a tuber of Sagittaria pygmaea Miq. was buried. […] For two days starting from the next day, water drainage and feeding each of 2 cm in depth per day were conducted.

Assay [5] deals with Sagittaria pygmaea Miq. Described as above. Format: in vivo. To be noted: water drainage and feeding 2 cm per day for two days, 28th day. The procedure:
as §2

For the molecule `COc1cc(OC)nc(C(O)c2ccccc2NS(=O)(=O)C(F)F)n1` (centres unmarked) [Example 1, 2-[(4,6-dimethoxypyrimidine-2-yl)hydroxymethyl]-N-difluoromethanesulfonyl anilide], the “Herbicidal effect Mo” value in assay [1] (0.4 g/10 ares) is 5 (Herbicidal effect of 90% or more, injury to paddy rice); in assay [1] (1.6 g/10 ares), 5 (Herbicidal effect of 90% or more, injury to paddy rice); in assay [1] (6.3 g/10 ares), 5 (Herbicidal effect of 90% or more, injury to paddy rice); in assay [1] (25.0 g/10 ares), 5 (Herbicidal effect of 90% or more, injury to paddy rice). The “Herbicidal effect Ec” value in assay [2] (0.4 g/10 ares) is given as 1 (Herbicidal effect of 10% or more to less than 30%, injury to paddy rice); in assay [2] (1.6 g/10 ares), 3 (Herbicidal effect of 50% or more to less than 70%, injury to paddy rice); in assay [2] (6.3 g/10 ares), 4 (Herbicidal effect of 70% or more to less than 90%, injury to paddy rice); in assay [2] (25.0 g/10 ares) it was 5 (Herbicidal effect of 90% or more, injury to paddy rice); in assay [4] (0.6 g/10 ares) it was 2 (Herbicidal effect of 30% or more to less than 50%, injury to paddy rice); in assay [4] (1.3 g/10 ares), 4 (Herbicidal effect of 70% or more to less than 90%, injury to paddy rice). For the same molecule, the “Herbicidal effect Ec” value in assay [4] (2.5 g/10 ares) was 5 (Herbicidal effect of 90% or more, injury to paddy rice); in assay [4] (5.0 g/10 ares), 5 (Herbicidal effect of 90% or more, injury to paddy rice). Moreover, the “Herbicidal effect (Ec) Application at 3-leaf stage” value (shortened to “Herbicidal effect … at 3-leaf stage”) is on record as 0 (Herbicidal effect of less than 10%, injury to paddy rice) in assay [3] (0.3 g/10 ares); 1 (Herbicidal effect of 10% or more to less than 30%, injury to paddy rice) in assay [3] (0.6 g/10 ares); 2 (Herbicidal effect of 30% or more to less than 50%, injury to paddy rice) in assay [3] (1.3 g/10 ares); 4 (Herbicidal effect of 70% or more to less than 90%, injury to paddy rice) in assay [3] (2.5 g/10 ares); 5 (Herbicidal effect of 90% or more, injury to paddy rice) in assay [3] (5.0 g/10 ares). For the same molecule, the “Herbicidal effect (Ec) Application before germination” value is listed as 1 (Herbicidal effect of 10% or more to less than 30%, injury to paddy rice) in assay [3] (0.3 g/10 ares); 2 (Herbicidal effect of 30% or more to less than 50%, injury to paddy rice) in assay [3] (0.6 g/10 ares); 3 (Herbicidal effect of 50% or more to less than 70%, injury to paddy rice) in assay [3] (1.3 g/10 ares); 5 (Herbicidal effect of 90% or more, injury to paddy rice) in assay [3] (2.5 g/10 ares); 5 (Herbicidal effect of 90% or more, injury to paddy rice) in assay [3] (5.0 g/10 ares). Moreover, the “Herbicidal effect Sc” value in assay [5] (0.6 g/10 ares) was 2 (Herbicidal effect of 30% or more to less than 50%, injury to paddy rice); in assay [5] (1.3 g/10 ares), 5 (Herbicidal effect of 90% or more, injury to paddy rice); in assay [5] (2.5 g/10 ares) it was 5 (Herbicidal effect of 90% or more, injury to paddy rice); in assay [5] (5.0 g/10 ares), 5 (Herbicidal effect of 90% or more, injury to paddy rice).

Consider `COCc1cccc(C(O)c2nc(OC)cc(OC)n2)c1NS(=O)(=O)C(F)F` (centres unmarked) [Example 2, 2-[(4,6-dimethoxypyrimidine-2-yl)hydroxymethyl]-6-methoxymethyl-N-difluoromethanesulfonyl anilide], for which the “Herbicidal effect Mo” value is on record as 5 (Herbicidal effect of 90% or more, injury to paddy rice) in assay [1] (0.4 g/10 ares); 5 (Herbicidal effect of 90% or more, injury to paddy rice) in assay [1] (1.6 g/10 ares); 5 (Herbicidal effect of 90% or more, injury to paddy rice) in assay [1] (6.3 g/10 ares); 5 (Herbicidal effect of 90% or more, injury to paddy rice) in assay [1] (25.0 g/10 ares). Further, the “Herbicidal effect Ec” value in assay [2] (0.4 g/10 ares) is given as 4 (Herbicidal effect of 70% or more to less than 90%, injury to paddy rice); in assay [2] (1.6 g/10 ares), 5 (Herbicidal effect of 90% or more, injury to paddy rice); in assay [2] (6.3 g/10 ares) it was 5 (Herbicidal effect of 90% or more, injury to paddy rice); in assay [2] (25.0 g/10 ares) it was 5 (Herbicidal effect of 90% or more, injury to paddy rice). In addition, the “Herbicidal effect … at 3-leaf stage” value is 3 (Herbicidal effect of 50% or more to less than 70%, injury to paddy rice) in assay [3] (0.3 g/10 ares); 4 (Herbicidal effect of 70% or more to less than 90%, injury to paddy rice) in assay [3] (0.6 g/10 ares); 5 (Herbicidal effect of 90% or more, injury to paddy rice) in assay [3] (1.3 g/10 ares); 5 (Herbicidal effect of 90% or more, injury to paddy rice) in assay [3] (2.5 g/10 ares); 5 (Herbicidal effect of 90% or more, injury to paddy rice) in assay [3] (5.0 g/10 ares). Moreover, the “Herbicidal effect (Ec) Application before germination” value in assay [3] (0.3 g/10 ares) was 4 (Herbicidal effect of 70% or more to less than 90%, injury to paddy rice); in assay [3] (0.6 g/10 ares), 5 (Herbicidal effect of 90% or more, injury to paddy rice); in assay [3] (1.3 g/10 ares), 5 (Herbicidal effect of 90% or more, injury to paddy rice); in assay [3] (2.5 g/10 ares), 5 (Herbicidal effect of 90% or more, injury to paddy rice); in assay [3] (5.0 g/10 ares) it was 5 (Herbicidal effect of 90% or more, injury to paddy rice).

For the molecule `CCc1cccc(C(O)c2nc(OC)cc(OC)n2)c1NS(=O)(=O)C(F)F` (centres unmarked) [Example 3, 2-[(4,6-dimethoxypyrimidine-2-yl)hydroxymethyl]-6-ethyl-N-difluoromethanesulfonyl anilide], the “Herbicidal effect Mo” value in assay [1] (0.4 g/10 ares) is given as 5 (Herbicidal effect of 90% or more, injury to paddy rice); in assay [1] (1.6 g/10 ares), 5 (Herbicidal effect of 90% or more, injury to paddy rice); in assay [1] (6.3 g/10 ares), 5 (Herbicidal effect of 90% or more, injury to paddy rice); in assay [1] (25.0 g/10 ares), 5 (Herbicidal effect of 90% or more, injury to paddy rice). Moreover, the “Herbicidal effect Ec” value is 4 (Herbicidal effect of 70% or more to less than 90%, injury to paddy rice) in assay [2] (0.4 g/10 ares); 5 (Herbicidal effect of 90% or more, injury to paddy rice) in assay [2] (1.6 g/10 ares); 5 (Herbicidal effect of 90% or more, injury to paddy rice) in assay [2] (6.3 g/10 ares); 5 (Herbicidal effect of 90% or more, injury to paddy rice) in assay [2] (25.0 g/10 ares). For the same molecule, the “Herbicidal effect … at 3-leaf stage” value is 2 (Herbicidal effect of 30% or more to less than 50%, injury to paddy rice) in assay [3] (0.3 g/10 ares); 4 (Herbicidal effect of 70% or more to less than 90%, injury to paddy rice) in assay [3] (0.6 g/10 ares); 5 (Herbicidal effect of 90% or more, injury to paddy rice) in assay [3] (1.3 g/10 ares); 5 (Herbicidal effect of 90% or more, injury to paddy rice) in assay [3] (2.5 g/10 ares); 5 (Herbicidal effect of 90% or more, injury to paddy rice) in assay [3] (5.0 g/10 ares). Also, the “Herbicidal effect (Ec) Application before germination” value in assay [3] (0.3 g/10 ares) is recorded as 4 (Herbicidal effect of 70% or more to less than 90%, injury to paddy rice); in assay [3] (0.6 g/10 ares), 5 (Herbicidal effect of 90% or more, injury to paddy rice); in assay [3] (1.3 g/10 ares), 5 (Herbicidal effect of 90% or more, injury to paddy rice); in assay [3] (2.5 g/10 ares), 5 (Herbicidal effect of 90% or more, injury to paddy rice); in assay [3] (5.0 g/10 ares) it was 5 (Herbicidal effect of 90% or more, injury to paddy rice).

The record behind these values is US6458748B1, “Di- or tri-fluoromethanesulfonyl anilide derivatives, process for the preparation of them and herbicides containing them as the active ingredient” (Ihara Chemical Industry Co., Ltd., priority 1998, dated 2002).
